Measured values taken from PubChem BioAssay (NCI).
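Test compounds were applied to cells in 96-well plates for 48 hours at 5 doses. TGI: concentration producing complete growth inhibition.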

Legend:
Test in all cases: NCI tumour cell line growth inhibition, 48 h
UACC-257 melanoma = system: UACC-257 melanoma
MOLT-4 leukemia = system: MOLT-4 leukemia
MDA-MB-231 breast = system: MDA-MB-231 breast
SN12C renal = system: SN12C renal
IGROV1 ovarian = system: IGROV1 ovarian
786-0 renal = system: 786-0 renal
MDA-MB-435 = system: MDA-MB-435
BT-549 breast = system: BT-549 breast
DU-145 prostate = system: DU-145 prostate
OVCAR-4 ovarian = system: OVCAR-4 ovarian
PC-3 prostate = system: PC-3 prostate
MCF7 breast = system: MCF7 breast
COLO 205 colon = system: COLO 205 colon
NCI-H460 lung = system: NCI-H460 lung
MDA-N = system: MDA-N
CCRF-CEM leukemia = system: CCRF-CEM leukemia
CAKI-1 renal = system: CAKI-1 renal
TK-10 renal = system: TK-10 renal
RPMI-8226 leukemia = system: RPMI-8226 leukemia
NCI-H23 lung = system: NCI-H23 lung
EKVX NSCLC = system: EKVX NSCLC
LOX IMVI melanoma = system: LOX IMVI melanoma
HCT-15 colon = system: HCT-15 colon
SK-OV-3 ovarian = system: SK-OV-3 ovarian
M14 melanoma = system: M14 melanoma
T-47D breast = system: T-47D breast
SNB-19 CNS = system: SNB-19 CNS
K-562 leukemia = system: K-562 leukemia
OVCAR-8 ovarian = system: OVCAR-8 ovarian
SF-295 CNS = system: SF-295 CNS
HOP-92 NSCLC = system: HOP-92 NSCLC
ACHN renal = system: ACHN renal
SK-MEL-28 melanoma = system: SK-MEL-28 melanoma
OVCAR-3 ovarian = system: OVCAR-3 ovarian
NCI/ADR-RES ovarian = system: NCI/ADR-RES ovarian
SNB-75 CNS = system: SNB-75 CNS
U251 CNS = system: U251 CNS
SW-620 colon = system: SW-620 colon
SF-268 CNS = system: SF-268 CNS
HCC-2998 colon = system: HCC-2998 colon
HOP-62 NSCLC = system: HOP-62 NSCLC
SK-MEL-2 melanoma = system: SK-MEL-2 melanoma
RXF 393 renal = system: RXF 393 renal
NCI-H522 lung = system: NCI-H522 lung
OVCAR-5 ovarian = system: OVCAR-5 ovarian
HCT-116 colon = system: HCT-116 colon
UACC-62 melanoma = system: UACC-62 melanoma
HS 578T breast = system: HS 578T breast
NCI-H226 lung = system: NCI-H226 lung
MALME-3M melanoma = system: MALME-3M melanoma
A549 NSCLC = system: A549 NSCLC
SR leukemia = system: SR leukemia
KM12 colon = system: KM12 colon
UO-31 renal = system: UO-31 renal
HT29 colon = system: HT29 colon
SK-MEL-5 melanoma = system: SK-MEL-5 melanoma
A498 renal = system: A498 renal
SF-539 CNS = system: SF-539 CNS

O=C1C(c2c(O)[nH]c3ccc(S(=O)(=O)N(CCO)CCO)cc23)=Nc2ccccc21
TGI (UACC-257 melanoma): > 100 µM
TGI (MOLT-4 leukemia): > 100 µM
TGI (MDA-MB-231 breast): > 100 µM
TGI (SN12C renal): > 100 µM
TGI (IGROV1 ovarian): > 100 µM
TGI (786-0 renal): > 100 µM
TGI (MDA-MB-435): > 100 µM
TGI (BT-549 breast): > 100 µM
TGI (DU-145 prostate): 72.3 µM
TGI (OVCAR-4 ovarian): > 100 µM
TGI (PC-3 prostate): > 100 µM
TGI (MCF7 breast): > 100 µM
TGI (COLO 205 colon): > 100 µM
TGI (NCI-H460 lung): > 100 µM
TGI (MDA-N): > 100 µM
TGI (CCRF-CEM leukemia): > 100 µM
TGI (CAKI-1 renal): > 100 µM
TGI (TK-10 renal): > 100 µM
TGI (RPMI-8226 leukemia): > 100 µM
TGI (NCI-H23 lung): > 100 µM
TGI (EKVX NSCLC): > 100 µM
TGI (LOX IMVI melanoma): > 100 µM
TGI (HCT-15 colon): > 100 µM
TGI (SK-OV-3 ovarian): > 100 µM
TGI (M14 melanoma): > 100 µM
TGI (T-47D breast): 20.3 µM
TGI (SNB-19 CNS): > 100 µM
TGI (K-562 leukemia): > 100 µM
TGI (OVCAR-8 ovarian): > 100 µM
TGI (SF-295 CNS): > 100 µM
TGI (HOP-92 NSCLC): > 100 µM
TGI (ACHN renal): > 100 µM
TGI (SK-MEL-28 melanoma): > 100 µM
TGI (OVCAR-3 ovarian): > 100 µM
TGI (NCI/ADR-RES ovarian): > 100 µM
TGI (SNB-75 CNS): 8.49 µM
TGI (U251 CNS): > 100 µM
TGI (SW-620 colon): > 100 µM
TGI (SF-268 CNS): > 100 µM
TGI (HCC-2998 colon): > 100 µM
TGI (HOP-62 NSCLC): > 100 µM
TGI (SK-MEL-2 melanoma): > 100 µM
TGI (RXF 393 renal): 6.53 µM
TGI (NCI-H522 lung): > 100 µM
TGI (OVCAR-5 ovarian): > 100 µM
TGI (HCT-116 colon): > 100 µM
TGI (UACC-62 melanoma): > 100 µM
TGI (HS 578T breast): > 100 µM
TGI (NCI-H226 lung): > 100 µM
TGI (MALME-3M melanoma): > 100 µM
TGI (A549 NSCLC): > 100 µM
TGI (SR leukemia): > 100 µM
TGI (KM12 colon): > 100 µM
TGI (UO-31 renal): > 100 µM
TGI (HT29 colon): > 100 µM
TGI (SK-MEL-5 melanoma): > 100 µM
TGI (A498 renal): > 100 µM

Cc1ccc2cccc(OC(=O)c3cc4c(cc3Cl)Sc3nccn3S4(=O)=O)c2n1
TGI (UACC-257 melanoma): 25.4 µM
TGI (MOLT-4 leukemia): 19.8 µM
TGI (MDA-MB-231 breast): 29.3 µM
TGI (SN12C renal): > 100 µM
TGI (IGROV1 ovarian): 17.5 µM
TGI (786-0 renal): 43.6 µM
TGI (MDA-MB-435): 26.1 µM
TGI (BT-549 breast): > 78.1 µM
TGI (DU-145 prostate): 18.1 µM
TGI (OVCAR-4 ovarian): 25.1 µM
TGI (PC-3 prostate): 14.7 µM
TGI (MCF7 breast): 18.4 µM
TGI (COLO 205 colon): 29.4 µM
TGI (NCI-H460 lung): 10.4 µM
TGI (MDA-N): > 96 µM
TGI (CCRF-CEM leukemia): 17 µM
TGI (CAKI-1 renal): > 79.9 µM
TGI (TK-10 renal): 30.9 µM
TGI (RPMI-8226 leukemia): 7.03 µM
TGI (NCI-H23 lung): 63.6 µM
TGI (EKVX NSCLC): 48 µM
TGI (LOX IMVI melanoma): 19.8 µM
TGI (HCT-15 colon): 29 µM
TGI (SK-OV-3 ovarian): 84.2 µM
TGI (M14 melanoma): 25.7 µM
TGI (T-47D breast): 13 µM
TGI (SNB-19 CNS): 46.3 µM
TGI (K-562 leukemia): 23.9 µM
TGI (OVCAR-8 ovarian): 28.8 µM
TGI (SF-295 CNS): 29.7 µM
TGI (HOP-92 NSCLC): 68 µM
TGI (ACHN renal): 38.7 µM
TGI (SK-MEL-28 melanoma): 30.8 µM
TGI (OVCAR-3 ovarian): 11.6 µM
TGI (NCI/ADR-RES ovarian): 46.2 µM
TGI (SNB-75 CNS): 39.6 µM
TGI (U251 CNS): 16.6 µM
TGI (SW-620 colon): 40.3 µM
TGI (SF-268 CNS): > 100 µM
TGI (HCC-2998 colon): 13.1 µM
TGI (HOP-62 NSCLC): 19.4 µM
TGI (SK-MEL-2 melanoma): 27.1 µM
TGI (RXF 393 renal): 20.5 µM
TGI (NCI-H522 lung): 38 µM
TGI (OVCAR-5 ovarian): > 61.2 µM
TGI (HCT-116 colon): 18.9 µM
TGI (UACC-62 melanoma): 32.6 µM
TGI (HS 578T breast): > 100 µM
TGI (NCI-H226 lung): > 75.7 µM
TGI (MALME-3M melanoma): 47.4 µM
TGI (SF-539 CNS): 17.2 µM
TGI (A549 NSCLC): 28.5 µM
TGI (SR leukemia): 16.7 µM
TGI (KM12 colon): 18.7 µM
TGI (UO-31 renal): 30.6 µM
TGI (HT29 colon): 44.5 µM
TGI (SK-MEL-5 melanoma): 27 µM
TGI (A498 renal): 45 µM
